What was measured:
Assay in all cases: relative viability (nuclei count vs DMSO), 5 days (fraction); higher = more cells survive
Dovitinib + Lapatinib = compound: CN1CCN(c2ccc3nc(-c4c(N)c5c(F)cccc5[nH]c4=O)[nH]c3c2)CC1 [Dovitinib] + CS(=O)(=O)CCNCc1ccc(-c2ccc3ncnc(Nc4ccc(OCc5cccc(F)c5)c(Cl)c4)c3c2)o1 [Lapatinib] (partner 2 µM)
Summary of the method: (§1)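 A single step with final 0.05% Triton X-100, 1% formaldehyde and 1 ug/ml Hoechst fixed the cells and stained nuclei 5 days after treatment. Lung cancer cell lines in 1536-well plates had been treated by pin tool the day after seeding with one drug alone or a fixed anchor-drug dose plus five library-drug doses (not always all listed) in √10 steps, and nuclei were counted on 4× images. Relative viability is the ratio of nuclei in treated wells to nuclei in vehicle wells, taken as the median of duplicate plates.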

Dovitinib + Crizotinib = compound: CN1CCN(c2ccc3nc(-c4c(N)c5c(F)cccc5[nH]c4=O)[nH]c3c2)CC1 [Dovitinib] + C[C@@H](Oc1cc(-c2cnn(C3CCNCC3)c2)cnc1N)c1c(Cl)ccc(F)c1Cl [Crizotinib] (partner 1 µM)
Summary of the method: as §1

Dovitinib + Tozasertib = compound: CN1CCN(c2ccc3nc(-c4c(N)c5c(F)cccc5[nH]c4=O)[nH]c3c2)CC1 [Dovitinib] + Cc1cc(Nc2cc(N3CCN(C)CC3)nc(Sc3ccc(NC(=O)C4CC4)cc3)n2)n[nH]1 [Tozasertib] (partner 0.1 µM)
Summary of the method: as §1

Dovitinib + Decitabine = compound: CN1CCN(c2ccc3nc(-c4c(N)c5c(F)cccc5[nH]c4=O)[nH]c3c2)CC1 [Dovitinib] + Nc1ncn([C@H]2C[C@H](O)[C@@H](CO)O2)c(=O)n1 [Decitabine] (partner 2 µM)
Summary of the method: as §1

Row | Cell Line | relative viability (Dovitinib + Lapatinib; first compound 0.02 µM) | relative viability (Dovitinib + Lapatinib; first compound 0.06325 µM) | relative viability (Dovitinib + Lapatinib; first compound 0.6325 µM) | relative viability (Dovitinib + Lapatinib; first compound 2 µM) | relative viability (Dovitinib + Crizotinib; first compound 0.02 µM) | relative viability (Dovitinib + Crizotinib; first compound 0.06325 µM) | relative viability (Dovitinib + Crizotinib; first compound 0.6325 µM) | relative viability (Dovitinib + Crizotinib; first compound 2 µM) | relative viability (Dovitinib + Tozasertib; first compound 0.02 µM) | relative viability (Dovitinib + Tozasertib; first compound 0.06325 µM) | relative viability (Dovitinib + Tozasertib; first compound 0.2 µM) | relative viability (Dovitinib + Tozasertib; first compound 0.6325 µM) | relative viability (Dovitinib + Tozasertib; first compound 2 µM) | relative viability (Dovitinib + Decitabine; first compound 0.02 µM) | relative viability (Dovitinib + Decitabine; first compound 0.06325 µM) | relative viability (Dovitinib + Decitabine; first compound 0.2 µM) | relative viability (Dovitinib + Decitabine; first compound 0.6325 µM) | relative viability (Dovitinib + Decitabine; first compound 2 µM) | relative viability (Dovitinib + Lapatinib; first compound 0.2 µM) | relative viability (Dovitinib + Crizotinib; first compound 0.2 µM)
1 | 201T | 0.95 | 0.993 | 1.01 | 0.968 | 1.03 | 0.935 | 0.992 | 1.01 | 0.917 | 0.967 | 0.975 | 0.946 | 0.873 | 0.817 | 0.857 | 0.839 | 0.844 | 0.871 |  | 
2 | A-427 | 1.02 | 0.952 | 0.975 | 1.05 | 0.854 | 0.812 | 0.708 | 0.819 | 0.222 | 0.201 | 0.203 | 0.162 | 0.225 | 0.569 | 0.512 | 0.695 | 0.581 | 0.59 | 1.01 | 0.85
3 | ABC-1 | 1.15 | 1.28 | 1.18 | 0.969 | 1.54 | 1.19 | 1.2 | 1.08 | 0.175 | 0.208 | 0.201 | 0.208 | 0.192 | 1.08 | 0.991 | 1.03 | 0.891 | 1.14 | 1.02 | 1.22
4 | BEN | 0.533 | 0.822 | 0.771 | 0.808 | 0.864 | 0.903 | 0.827 | 0.887 | 0.512 | 0.526 | 0.591 | 0.635 | 0.419 | 0.754 | 0.599 | 0.683 | 0.783 | 0.71 | 0.835 | 0.912
5 | CAL-12T | 0.709 | 0.501 | 0.618 | 0.986 | 0.532 | 0.628 | 0.635 | 0.661 | 0.28 | 0.3 | 0.341 | 0.262 | 0.285 |  |  |  |  |  | 0.713 | 0.654
6 | COR-L23 | 0.918 | 0.983 | 1.01 | 0.882 | 0.655 | 0.526 | 0.55 | 0.756 | 0.207 | 0.191 | 0.194 | 0.172 | 0.215 | 0.439 | 0.43 | 0.438 | 0.501 | 0.484 | 1.04 | 0.638
7 | COR-L 105 | 0.39 | 0.367 | 0.327 | 0.407 | 0.706 | 0.832 | 0.701 | 0.69 | 0.345 | 0.299 | 0.365 | 0.394 | 0.168 | 0.596 | 0.622 | 0.619 | 0.657 | 0.646 | 0.341 | 0.774
8 | Calu-6 | 0.99 | 1.04 | 1.08 | 1.09 | 0.674 | 0.827 | 0.847 | 0.779 |  |  |  |  |  |  |  |  |  |  | 1.11 | 0.665
9 | ChaGo-K-1 |  |  |  |  | 1.03 | 1.08 | 1.11 | 1.15 | 0.233 | 0.215 | 0.241 | 0.227 | 0.208 | 0.528 | 0.517 | 0.498 | 0.514 | 0.487 |  | 1.09
10 | EBC-1 | 0.25 | 0.228 | 0.194 | 0.216 | 0.177 | 0.212 | 0.162 | 0.208 |  |  |  |  |  |  |  |  |  |  | 0.222 | 0.193
11 | EKVX | 0.252 | 0.189 | 0.21 | 0.21 | 0.937 | 0.975 | 0.988 | 0.906 | 0.431 | 0.367 | 0.372 | 0.431 | 0.38 | 0.388 | 0.399 | 0.348 | 0.339 | 0.286 | 0.257 | 1.08
12 | EMC-BAC-2 | 0.886 | 0.839 | 0.807 | 0.923 | 0.702 | 0.699 | 0.62 | 0.776 | 0.294 | 0.299 | 0.287 | 0.273 | 0.3 | 1.1 | 0.958 | 1.06 | 1 | 1.01 | 0.898 | 0.749
13 | EPLC-272H | 0.992 | 0.939 | 1.1 | 1.23 | 0.799 | 0.994 | 1.09 | 0.972 | 0.343 | 0.267 | 0.263 | 0.343 | 0.32 | 0.403 | 0.333 | 0.336 | 0.372 | 0.374 | 0.94 | 0.981
14 | H3255 | 0.217 | 0.266 | 0.266 | 0.255 | 0.898 | 0.903 | 0.929 | 0.871 | 0.741 | 0.617 | 0.766 | 0.638 | 0.629 | 0.609 | 0.642 | 0.603 | 0.636 | 0.614 | 0.288 | 0.854
15 | HARA | 0.914 | 0.716 | 0.805 | 0.602 | 1.07 | 1.08 | 1.1 | 1.07 | 0.117 | 0.11 | 0.107 | 0.102 | 0.112 | 0.733 | 0.618 | 0.508 | 0.57 | 0.465 | 0.564 | 0.985
16 | HCC-15 | 0.853 | 0.857 | 0.874 | 0.845 | 0.756 | 0.841 | 0.79 | 0.812 | 0.349 | 0.439 | 0.416 | 0.36 | 0.441 | 0.684 | 0.746 | 0.686 | 0.676 | 0.619 | 0.91 | 0.719
17 | HCC-44 | 1.01 | 1.02 | 0.938 | 1.01 | 0.668 | 0.793 | 0.745 | 0.777 | 0.724 | 1.03 | 0.99 | 0.884 | 0.938 | 0.926 | 0.936 | 0.97 | 0.962 | 0.92 | 1.03 | 0.76
18 | HCC-78 | 0.539 |  | 1.03 | 0.663 | 0.334 |  | 0.347 | 0.363 | 0.712 | 0.404 | 0.544 | 0.464 | 0.576 | 0.741 | 0.659 | 0.686 | 0.655 | 0.631 | 0.901 | 0.356

Reference: the supplement of paper PMC10307832
